Measurements reported in patent US20240327432A1, “THIOPHENE-PHENOTHIAZINE COMPOUNDS AND SYNTHESIS METHOD THEREOF, AS WELL AS APPLICATION THEREOF IN PREPARATION OF PHOTOTHERAPY MEDICINES” (Guangzhou Medical University, priority 2023, published 2024).

What was measured:
4T1 cells [1] = test: Phototoxicity measurement (CCK-8), 4T1; format: cell-based, mouse; settings: for IC50: 1 h incubation, 630 nm LED, 3.2 J cm^−2, then 24 h, read-out: PDK IC50 (phototoxicity)
Procedure: (§1) (1) Cell culture: HUVEC cells (human umbilical vein endothelial cells), A549 cells (human lung cancer cells), MCF-7 cells (human breast cancer cells), HeLa cells (human cervical cancer cells) and 4T1 cells (mouse breast cancer cells) were cultured in a DMEM high-glucose medium containing 10% fetal bovine serum and 1% penicillin-streptomycin at 37° C. and under a condition of a 5% carbon dioxide content. The HUVEC cells, the A549 cells, the MCF-7 cells, the HeLa cells and the 4T1 cells, at a logarithmic growth phase, were taken and inoculated into a 96-well plate, respectively, with approximately 1×10^4 cells per well, and incubation was performed overnight at 37° C. and under a condition of 5% CO2.
(§2) (3) Phototoxicity measurement: the cells were incubated in the dark with the compound of the present invention of different concentrations for 1 hour, rinsing was performed with PBS, a fresh culture solution was added, and the cells were irradiated with 630 nm LED light (light dose is 3.2 J cm^−2). Then the cells were incubated in the dark environment for 24 hours, and cell viability was measured by the CCK-8 method.

4T1 cells [2] = test: Dark toxicity measurement (CCK-8), 4T1; format: cell-based, mouse; settings: 24 h in dark, read-out: DK IC50 (dark toxicity)
Procedure: as §1
(§3) (2) Dark toxicity measurement: the cells were incubated in a dark environment with the compound of the present invention of different concentrations for 24 hours, and cell viability was measured by a CCK-8 method.

MCF-7 cells [3] = test: Phototoxicity measurement (CCK-8), MCF-7; format: cell-based, human; settings: for IC50: Homo sapiens, MCF7, light or radiation study, 1 h incubation, 630 nm LED, 3.2 J cm^−2, then 24 h, read-out: PDK IC50 (phototoxicity)
Procedure: as §1, §2

HeLa cells [4] = test: Dark toxicity measurement (CCK-8), HeLa; format: cell-based; settings: Homo sapiens, 24 h in dark, read-out: DK IC50 (dark toxicity)
Procedure: as §1, §3

HeLa cells [5] = test: Phototoxicity measurement (CCK-8), HeLa; format: cell-based, human; settings: for IC50: Homo sapiens, light or radiation study, 1 h incubation, 630 nm LED, 3.2 J cm^−2, then 24 h, read-out: PDK IC50 (phototoxicity)
Procedure: as §1, §2

A549 cells [6] = test: Dark toxicity measurement (CCK-8), A549; format: cell-based; settings: Homo sapiens, 24 h in dark, read-out: DK IC50 (dark toxicity)
Procedure: as §1, §3

MCF-7 cells [7] = test: Dark toxicity measurement (CCK-8), MCF-7; format: cell-based; settings: Homo sapiens, MCF7, 24 h in dark, read-out: DK IC50 (dark toxicity)
Procedure: as §1, §3

A549 cells [8] = test: Phototoxicity measurement (CCK-8), A549; format: cell-based, human; settings: for IC50: Homo sapiens, light or radiation study, 1 h incubation, 630 nm LED, 3.2 J cm^−2, then 24 h, read-out: PDK IC50 (phototoxicity)
Procedure: as §1, §2

[9] = Fluorescence emission spectrum; format: physicochemical; settings: for λem (maximum fluorescence emission wavelength): excitation 650 nm, solvent methanol; for ϕF (fluorescence quantum yield): ϕF of MB as reference (0.04, methanol)
Procedure: Detection of the thiophene-phenothiazine compounds prepared in Examples 1-5: the absorption spectrum of the thiophene-phenothiazine compound in an ethanol solution was measured by using a UV-visible spectrophotometer, and spectral properties of the thiophene-phenothiazine compound were analyzed according to Beer-Lambert law; […] with a wavelength of 650 nm, and results are shown in Table 1 and FIGS. 2-3.
(§4) • a. Absorbance was measured in ethanol. • b. During fluorescence emission spectrum measurement, an excitation wavelength was 650 nm, and a solvent was methanol. • c. ϕF of MB was used as a reference [ϕF=0.04, methanol].

HUVEC cells = test: Dark toxicity measurement (CCK-8), HUVEC; format: cell-based; settings: Homo sapiens, 24 h in dark
Procedure: as §1, §3

[10] = Absorption spectrum by UV-visible spectrophotometer; format: physicochemical; settings: measured in ethanol
Procedure: Detection of the thiophene-phenothiazine compounds prepared in Examples 1-5: the absorption spectrum of the thiophene-phenothiazine compound in an ethanol solution was measured by using a UV-visible spectrophotometer, and spectral properties of the thiophene-phenothiazine compound were analyzed according to Beer-Lambert law; and a fluorescence emission spectrum of the thiophene-phenothiazine compound in the ethanol solution was measured under excitation of light with a wavelength of 650 nm, and results are shown in Table 1 and FIGS. 2-3.
as §4

[11] = Photostability under continuous LED irradiation; format: physicochemical; settings: 630 nm LED, 106 mW cm^−2, FIG. 4
Procedure: Good photostability is a prerequisite for ensuring continuous generation of ROS by the photosensitizers under light excitation, which can effectively prevent decomposition of the photosensitizers after illumination, avoiding a decrease in a ROS generation rate with increasing illumination time. An LED light source (630 nm, 106 mW cm^−2) was used to continuously irradiate the compound (5 μM), and a UV-visible spectrophotometer was used to measure the absorption spectrum of the compound at 200-800 nm. The photostability of the compound was evaluated by comparing changes in maximum absorption values at 600-800 nm after different irradiation times.
Result diagrams of other compounds are similar to that of the compound I-3.

[12] = test system: subcutaneous breast cancer (4T1) tumor model; test: In vivo PDT inhibition of breast cancer growth; set-up: species or system BALB/c mice; settings: 21 days
Description: (§5) 7-week-old BALB/c female mice weighing 18 g±1 g (purchased from Zhejiang Vital River Laboratory Animal Technology Co., Ltd) were used to construct a subcutaneous breast cancer (4T1) tumor model. When tumor volumes of the BALB/c mice were approximately 100 mm^3, in vivo anti-tumor experiments began. When the tumor volumes of the BALB/c mice were approximately 200 mm^3, imaging experiments began.
The BALB/c mice with the tumor volumes of approximately 100 mm^3 were taken, and the tumor bearing mice were divided into 4 groups, namely groups A, B, C and D, with 5 mice in each group. The mice in the group A and the group B were injected with 1×PBS 100 μL via tail veins. In addition, the mice in the group C and the group D were injected with compound I-3 via the tail veins at a dose of 1.6 mg/kg; and after 2 hours, the mice in the group B and the group D were irradiated with a light source (655 nm, 300 mW cm^2) for 10 minutes. Body weights and tumor volumes of the mice were measured on the 2nd day, 4th day, 8th day, 12th day, 16th day, and 21st day, respectively. On the 21st day, approximately 0.8 mL of mouse blood was collected using an eyeball blood sampling method, of which 0.4 mL of the mouse blood was placed in an EDTA-2K anticoagulant tube, and the remaining 0.4 mL of the mouse blood was centrifuged for serum collection.

[13] = Singlet oxygen generation, DPBF steady-state method; format: physicochemical; settings: 2 μM in EtOH, 630 nm LED, irradiation for 20 s
Procedure: The efficiency of producing singlet oxygen through photosensitization is an important index for evaluating the photosensitizers. In the example, a conventional steady-state method was used, 1,3-diphenylisobenzofuran (DPBF) was used as a scavenger, which irreversibly reacted with the singlet oxygen to cause attenuation of the DPBF. An attenuation rate of the DPBF reflects production efficiency of ^1O2. Concentrations of the DPBF in EtOH at multiple irradiation time periods were measured by using a UV/Vis spectrum method.

4T1 subcutaneous tumors [14] = test: Distribution in 4T1 subcutaneous tumors of mice (imaging); format: in vivo, BALB/c mice; settings: 1.6 mg/kg via tail vein
Procedure: as §5
A solution of 10 mg/L was prepared from the compound I-3 of the present invention by using 1×PBS. The BALB/c mice with the tumor volumes of approximately 200 mm^3 were taken, and the solution was injected into tumor bearing mice via tail veins at a dose of 1.6 mg/kg. Imaging photos were taken at different times using Odyssey CLX, with excitation light of 680 nm and detection light of 720 nm. […] Therefore, the thiophene-phenothiazine compound of the present invention can be completely metabolized within 24 hours, effectively solving a metabolic problem in existing PDT treatment mentioned above.

4T1 subcutaneous tumors [15] = settings: comparison from prior knowledge; cited from earlier work
[16] = Mus musculus, light or radiation study

λem (maximum fluorescence emission wavelength) [9] [nm]	ϕF (fluorescence quantum yield) [9]	λmax (maximum absorption wavelength) [10] [nm]	Compound	PI (phototherapeutic index) (4T1 cells [1])	IC50 (4T1 cells [1]; [16]) [nM]	IC50 (4T1 cells [2]; Mus musculus) [nM]	PI (phototherapeutic index) (MCF-7 cells [3])	IC50 (MCF-7 cells [3]) [nM]	IC50 (HeLa cells [4]) [nM]	PI (phototherapeutic index) (HeLa cells [5])	IC50 (HeLa cells [5]) [nM]	IC50 (A549 cells [6]) [nM]	IC50 (MCF-7 cells [7]) [nM]	PI (phototherapeutic index) (A549 cells [8])	IC50 (A549 cells [8]) [nM]	IC50 (HUVEC cells) [nM]	other results
692	0.4	663	CCN(CC)c1ccc2c(c1)S(Cl)=c1cc(N)c3ccsc3c1=N2 (stereo not shown) [Compound I-1]	17.69	870	15400	9.03	390	3740	10.26	360	7540	3560	16.47	460	25200	
698	0.5	671	CCN(CC)c1ccc2c(c1)S(Cl)=c1cc(NC)c3ccsc3c1=N2 (stereo not shown) [Compound I-2]	24.41	400	9790	14.2	140	3140	23.49	130	6930	2030	21.66	320	17600	
700	0.6	673	CCCNc1cc2c(c3sccc13)=Nc1ccc(N(CC)CC)cc1S=2Cl (stereo not shown) [Compound I-3]	44.51	190	8670	24.00	120	2400	32.72	70	6590	2860	31.35	210	13600	change of maximum absorption value as irradiation time increases (photostability) [11]: does not show a significant change; growth of tumor volumes ([12]; group C: 1.6 mg/kg i.v. alone, no irradiation): did not show tumor growth inhibition; growth of tumor volumes ([12]; group D: 1.6 mg/kg i.v. + light 655 nm, 10 minutes, after 2 hours): significantly inhibited; photosensitive efficiency (1O2, DPBF attenuation) [13]: 80%; time within which metabolized in mice (4T1 subcutaneous tumors [14]): ≤ 24 h; time after which compound gradually accumulates in tumors (4T1 subcutaneous tumors [14]; 4T1 tumor bearing mice): 1 h; time of maximum accumulation in the tumors (4T1 subcutaneous tumors [14]; 4T1 tumor bearing mice): 2 h; imaging signal after 24 hours (4T1 subcutaneous tumors [14]; 24 hours): basically not detected
701	0.5	673	CCCCCNc1cc2c(c3sccc13)=Nc1ccc(N(CC)CC)cc1S=2Cl (stereo not shown) [Compound I-4]	4.16	1320	5480	9.05	390	1890	4.32	440	3490	3490	11.09	310	10400	
700	0.6	674	CCCCCCCNc1cc2c(c3sccc13)=Nc1ccc(N(CC)CC)cc1S=2Cl (stereo not shown) [Compound I-5]	2.22	1920	4270	7.11	470	1440	3.32	430	3570	3340	8.57	420	7630	
			CN(C)c1ccc2nc3ccc(=[N+](C)C)cc-3sc2c1 [MB, Methylene blue, reference compound]														IC50 (4T1 cells [1]): 14100 nM; IC50 (4T1 cells [2]): 25700 nM
			porfimer sodium														metabolic time in the bodies (4T1 subcutaneous tumors [15]): about ten weeks
